The test system of one test is aorta. The test is described as follows: Vasodilator effect on aortic rings (KCl contraction). The note with it: Cavia porcellus; guinea pig aortic rings. As for the experimental part: Guinea pigs of either sex weighing between 250 or 380 g were utilized in this study. The animals were housed in a controlled environment in an air-conditioned room, maintaining a temperature of 22 to 24 °C and a relative humidity of 50% to 60%. A 12 h light–dark cycle was maintained.
On the day of the experiments, the animals were euthanized via cervical dislocation. The heart, aorta, pulmonary artery, and ileum were surgically removed and immersed in Krebs–Henseleit solution, with the following composition: NaCl 144.9 mM, KCl 4.73 mM, CaCl2 3.2 mM, MgSO4 1.18 mM, NaHCO3 24.9 mM, KH2PO4 1.18 mM, and glucose 10 mM, with the pH maintained at 7.2–7.4. This solution was continuously aerated with a mixture of 95% O2 and 5% CO2.
Papillary muscles were isolated from the right ventricle of the heart and meticulously cleared of Purkinje fibers to prevent spontaneous activity. To ensure adequate oxygen supply, only muscles with a diameter less than 0.87 mm were used. The right atrium was also dissected for assessment of chronotropic activity. […]
Following a 30 min control period, different concentrations of test compounds were cumulatively added to the bath solution every 45 min until a stable effect was achieved. The responses were recorded using a chart recorder (BD 112 Dual Channel, Kipp &Zonen, PO Box 507, 2624 BC, Delft, Holland) for subsequent evaluation. […]

A further test has as its system LmCPB2.8ΔCTE. Details: method as in PMID 36551331. The following applies: previous findings; cited from earlier work.

Regarding `O=C(/N=C(/NCc1ccccc1)Nc1ccc(Br)cc1)c1ccccc1` [LQOF-G2, (Z)-N-benzoyl-N-benzyl-N-(4-bromophenyl)guanidine], the EC50 in the test on aorta was determined as 16 µM.

On to `CC(C)(C)c1ccc(N/C(=N\C(=O)c2ccccc2)NCc2ccccc2)cc1` [LQOF-G6, (Z)-N-benzoyl-N-benzyl-N-(4-tert-butylphenyl)guanidine], for which the “inhibition of the enzyme LmCPB2.8ΔCTE” value in the test on LmCPB2.8ΔCTE is 73%.

As usually defined, the EC50 is the concentration needed to bring the measured effect to its halfway point.

These data come from paper PMC10813298, “Evidence of Guanidines Potential against Leishmania (Viannia) braziliensis: Exploring In Vitro Effectiveness, Toxicities and of Innate Immunity Response Effects” (Biomolecules, 2023).
